Test results from patent US11945807B2, “Splicing modulator antibody-drug conjugates and methods of use” (EISAI R&D MANAGEMENT CO., LTD., priority 2018, dated 2024).
Read-outs that look alike come from different tables or passages of the source.

Experiments:
[1] = system: FBXW5 (mature mRNA transcript); experiment: In vivo PD RT-qPCR in NCI-N87 tumors, FBXW5; parameters: species or system CB17-SCID mice; details: single IV 10 mg/kg; N=4; FIG. 24
[2] = system: TAOK1 (neojunction transcript); experiment: In vivo PD RT-qPCR in NCI-N87 tumors, TAOK1; parameters: species or system CB17-SCID mice; details: single IV 10 mg/kg; N=4; FIG. 24
PC3 cells = experiment: Cell viability CellTiter-Glo, PC3 (EPHA2-expressing); format: cell-based; details: for GI50: Homo sapiens, PC-3, free payload of the ADC; for Payload Rmin (%): free payload of the ADC
[3] = Caco-2 permeability of ADC payload; format: in vitro ADME; details: human; for Papp B→A at 2 h, 10 NM: basolateral to apical, read-out: Permeability Mean Caco-2 B-A Perm (10e−G cm/s)
MOLP8 cells = experiment: Cell viability CellTiter-Glo, MOLP8 (CD138-expressing); format: cell-based; details: for GI50: Homo sapiens, MOLP-8, unconjugated payload of the ADC in the row, read-out: Payload GI50
[4] = Chemical stability of ADC payload, pH 5.5 buffer; format: physicochemical; details: for half-life at 20 μM: McIlvaine (citrate-phosphate) buffer, unconjugated payload, Citrate-Phosphate buffer pH 5.5, 37° C., read-out: Stability Mean Stability t1/2 pH5.5 (converted); for pH 5.5 Stability (t1/2, 37 C.): pH 5.5, 37 C., corresponding payload
Description: (Eppendorf ThermoMixer). […] Time 0 was set to 100.

HCC1954 cells = experiment: Cell viability CellTiter-Glo, HCC1954; details: Homo sapiens, HCC1954, read-out: Payload GI50 (nM)
THP1.1 = experiment: Payload cell potency and lethality CTGlo 72 h, THP1.1; format: cell-based; details: for CTGlo-AT S Mean Min-Response % 72 h THP1.1: unconjugated payload; for GI50: read-out: CTGlo-ATS GMean GI50 (nM) 72 h THP1.1, cell line #3, 72 h, corresponding free payload
SF3b complex = biological target: T1, SF3b complex (Homo sapiens, UniProt O75533+Q7RTV0); experiment: SF3B1 binding / scintillation proximity assay (SPA)
T1 construct: The beads were suspended and added to the prepared nuclear extracts; endogenous in cells; host or cells: nuclear extracts

MCF7 cells = experiment: Cell viability CellTiter-Glo, MCF7 (HER2-negative); format: cell-based; details: Homo sapiens, unconjugated payload of the ADC
N87 cells = experiment: Cell viability CellTiter-Glo, N87; format: cell-based, human; details: unconjugated payload of the ADC; for GI50: Homo sapiens
Ad2.2 pre-mRNA = experiment: In vitro splicing (IVS) RT-qPCR, HeLa nuclear extract, Ad2.2; format: biochemical; details: biochemical splicing assay; corresponding free payload; read-out: qPCR-IVS-ATS GMean IC50 (nM) Ad2.2 HELA.2
Procedure: To evaluate payload activity in a cell-free system, an in vitro splicing assay was performed. The payloads were incubated with nuclear extracts and pre-mRNA substrate minigenes.
HeLa nuclear extract preparation: HeLa S3 cell pellets were resuspended in hypotonic buffer (10 mM HEPES pH 7.9, 1.5 mM MgCl2, 10 mM KCl, 0.2 mM PMSF, 0.5 mM DTT) and the suspension was brought up to a total of 5 packed cell volume (PCV). After centrifugation, the supernatant was discarded, and the cells were brought up to 3 PCV with hypotonic buffer and incubated on ice for 10 min. Cells were lysed using a dounce homogenizer and then centrifuged. […]. The nuclei were gently mixed for 30 min before centrifuging. The supernatant (nuclear extract) was then dialyzed into storage buffer (20 mM HEPES pH 7.9, 100 mM KCl, 0.2 mM EDTA, 20% glycerol, 0.2 mM PMSF, 0.5 mM DTT). Protein concentration was determined using NanoDrop 8000 UV-Vis spectrophotometer (ThermoFisher Scientific).
IVS: All Ad2-derived sequences (Pellizzoni et al. (1998) Cell 95(5):615-24) were cloned into pcDNA3.1(+) vector (Promega) using 5′ EcoRI and 3′ Xbal restriction sites. The plasmids were linearized using Xbal and used as DNA templates in in vitro transcription reactions. The FtzΔi intron-less plasmid (Luo and Reed (1999) 96(26):14937-42) was linearized using EcoRI. All RNAs were in vitro transcribed and then purified using MEGAScript T7 (Invitrogen) and MegaClear (Invitrogen) kits, respectively. For splicing reactions using Ad2 variant pre-mRNAs, 1 μL reactions were prepared using 8 μg nuclear extracts prepared from HeLa S3, 2 ng pre-mRNA, 0.2 ng FTZΔi, and varying concentrations of compounds or DMSO. After a 15 min pre-incubation at 30° C., 1 μL splicing activation buffer (0.5 mM ATP, 20 mM creatine phosphate, 1.6 mM MgCl2) was added, and the reactions were incubated for 90 min at 30° C. The reactions were then quenched with 13 μL DMSO, and 25 nL was used for RT-qPCR. RT-qPCR reactions were prepared using TaqMan RNA-to-CT 1-step kit (Life Technologies), RNA from splicing reactions, Ad2 (forward: […]; reverse: […]; probe: […]) and Ftz (forward: […]; reverse: […]; probe: […]) mRNA primer-probe sets. Prism 7 (Graphpad) was used for non-linear regression curve fitting of the formed spliced product and normalized to the control (DMSO) sample. […] In the presence of payload, a decrease in the amount of spliced product was observed.

NCIH1650.1 = experiment: Payload cellular potency CTGlo-ATS 72 h, NCIH1650.1; format: cell-based; details: cell line #1, 72 h, corresponding free payload; for GI50: read-out: CTGlo-ATS GMean GI50 (nM) 72 h NCIH1650.1
Caco-2 cells = experiment: Caco-2 permeability of ADC payload; format: in vitro ADME; details: corresponding free payload
NCIH1568.1 = experiment: Payload cellular potency CTGlo-ATS 72 h, NCIH1568.1; format: cell-based; details: cell line #2, 72 h, corresponding free payload; for GI50: read-out: CTGlo-ATS GMean GI50 (nM) 72 h NCIH1568.1
[5] = Caco-2, A-B, corresponding payload (Table 26), read-out: Permeability Caco-2 A-B (10e−6 cm/s)
[6] = Caco-2, unconjugated payload, apical to basolateral, 2 hours, read-out: Permeability Mean Caco-2 A-B Perm (10e−6 cm/s)
[7] = Caco-2, unconjugated payload, 2 hours
[8] = unconjugated payload, [3H]-pladienolide B probe displacement, read-out: SPA-AT S GMean IC50 (nM) SF381 (WT) HELA.2

| SMILES | GI50 (PC3 cells) [nM] | Payload Rmin (%) (PC3 cells) | Papp A→B at 2 h, 10 NM [3, 5] [nm/s] | Papp A→B at 2 h, 10 NM [3, 6] [nm/s] | Papp B→A at 2 h, 10 NM [3, 7] [nm/s] | half-life at 20 μM [4] [h] | pH 5.5 Stability (t1/2, 37 C.) [4] | GI50 (HCC1954 cells) [nM] | CTGlo-AT S Mean Min-Response % 72 h THP1.1 (THP1.1) [%] | IC50 (SF3b complex; [8]) [nM] | GI50 (MCF7 cells) [nM] | GI50 (N87 cells) [nM] | Payload Rmin (%) (N87 cells) | other results |
| --- | --- | --- | --- | --- | --- | --- | --- | --- | --- | --- | --- | --- | --- | --- |
| CC[C@H](O)[C@@H](C)[C@H]1O[C@@H]1C[C@@](C)(O)/C=C/C=C(\C)[C@H]1OC(=O)C[C@H](O)CC[C@@](C)(OC(C)=O)[C@@H](OC(=O)N2CCN(C(=O)OCc3ccc(NC(=O)[C@H](CCCNC(N)=O)NC(=O)[C@@H](NC(=O)CCCCCN4C(=O)C=CC4=O)C(C)C)cc3)CC2)/C=C/[C@@H]1C [ADL1-D4] | – | – | – | – | – | – | – | – | – | – | – | – | – | change of FBXW5 mature mRNA transcript in tumor [1]: significant depletion; change of TAOK1 neojunction transcript in tumor [2]: significant increases |
| CC[C@H](O)[C@@H](C)[C@H]1O[C@@H]1C[C@@](C)(O)/C=C/C=C(\C)[C@H]1OC(=O)C[C@H](O)CC[C@@](C)(OC)[C@@H](OC(=O)N2CCN(C)CC2)/C=C/[C@@H]1C [D2, (2S,3S,6S,7R,10R,E)-10-hydroxy-2-((R,2E,4E)-6-hydroxy-7-((2R,3R)-3-((2R,3S)-3-hydroxypentan-2-yl)oxiran-2-yl)-6-methylhepta-2,4-dien-2-yl)-7-methoxy-3,7-dimethyl-12-oxooxacyclododec-4-en-6-yl 4-methylpiperazine-1-carboxylate] | 2.39 | −68.803 | 6 | 6.24 | 142 | 96 | 4 | 0.6 | −100.218 | 15.5 | 2.85 | 0.749 | −72.706 | GI50 (MOLP8 cells): 0.316 nM; Payload Rmin (%) (MOLP8 cells; unconjugated payload of the ADC): −100.198% |
| CC[C@H](O)[C@@H](C)[C@H]1O[C@@H]1C[C@@](C)(O)/C=C/C=C(\C)[C@H]1OC(=O)C[C@H](O)CC[C@@](C)(OC(C)=O)[C@@H](OC(=O)N2CCN(CCN)CC2)/C=C/[C@@H]1C [D3, (2S,3S,6S,7R,10R,E)-7-acetoxy-10-hydroxy-2-((R,2E,4E)-6-hydroxy-7-((2R,3R)-3-((2R,3S)-3-hydroxypentan-2-yl)oxiran-2-yl)-6-methylhepta-2,4-dien-2-yl)-3,7-dimethyl-12-oxooxacyclododec-4-en-6-yl 4-(2-aminoethyl)piperazine-1-carboxylate] | – | – | – | – | – | – | – | – | – | – | – | – | – | IC50 (Ad2.2 pre-mRNA): 10.9 nM |
| CC[C@H](O)[C@@H](C)[C@H]1O[C@@H]1C[C@@](C)(O)/C=C/C=C(\C)[C@H]1OC(=O)C[C@H](O)CC[C@@](C)(OC(C)=O)[C@@H](OC(=O)N2C[C@@H]3C[C@H]2CN3)/C=C/[C@@H]1C [D5, (2S,3S,6S,7R,10R,E)-7-acetoxy-10-hydroxy-2-((R,2E,4E)-6-hydroxy-7-((2R,3R)-3-((2R,3S)-3-hydroxypentan-2-yl)oxiran-2-yl)-6-methylhepta-2,4-dien-2-yl)-3,7-dimethyl-12-oxooxacyclododec-4-en-6-yl (1S,4S)-2,5-diazabicyclo[2.2.1]heptane-2-carboxylate] | – | – | – | – | – | – | – | – | – | – | – | – | – | IC50 (Ad2.2 pre-mRNA): 23.9 nM |
| CC[C@H](O)[C@@H](C)C1OC1C[C@@](C)(O)/C=C/C=C(\C)[C@H]1OC(=O)C[C@H](O)CC[C@@](C)(OC)[C@@H](OC(=O)N2CCNCC2)/C=C/[C@@H]1C (stereo in doubt) [D1, (2S,3S,6S,7R,10R,E)-10-hydroxy-2-((R,2E,4E)-6-hydroxy-7-((2S,3S)-3-((2R,3S)-3-hydroxypentan-2-yl)oxiran-2-yl)-6-methylhepta-2,4-dien-2-yl)-7-methoxy-3,7-dimethyl-12-oxooxacyclododec-4-en-6-yl piperazine-1-carboxylate] | 13.3 | −71.987 | – | 1.4 | 20.5 | 94.8 | – | 1.85 | −100.615 | 6.08 | 17 | 7.04 | −40.041 | CTGlo-ATS GMean LD50 (nM) 72 h NCIH1650.1 (NCIH1650.1): >10000.00 nM; GI50 (NCIH1650.1): 12.1 nM; Perm. Mean Caco 2 A-B Perm (10e−6 cm/s) (Caco-2 cells): 0.14 10e−6 cm/s; Perm. Mean Caco 2 B-A Perm (10e−6 cm/s) (Caco-2 cells): 2.05 10e−6 cm/s; CTGlo-ATS GMean LD50 (nM) 72 h NCIH1568.1 (NCIH1568.1): 65.737 nM; GI50 (NCIH1568.1): 7.36 nM; GI50 (THP1.1): 11.1 nM; IC50 (SF3b complex; target binding, corresponding free payload, read-out: SPA-ATS GMean IC50 (nM) SF3B1 (WT) HELA.2): 6.08 nM |
| C/C(=C\c1cc(F)cc(N2CCOCC2)c1)[C@H]1OC(=O)C[C@H](O)CC[C@H](C)[C@@H](OC(=O)N2CCN(C)CC2)/C=C/[C@@H]1C [D17] | – | – | 200 | 202 | 182 | – | 7 | – | −99.033 | 1.82 | – | – | – | – |
| CC[C@H](O)[C@@H](C)[C@H]1O[C@@H]1C[C@H](C)/C=C/C=C(\C)[C@H]1OC(=O)C[C@H](O)CC[C@@](C)(OC(C)=O)[C@@H](OC(=O)N2CCNCC2)/C=C/[C@@H]1C [D9] | – | – | – | 11.5 | 161 | < 24 | – | – | −99.938 | – | – | – | – | IC50 (SF3b complex): 2.18 nM |
| CC[C@H](O)[C@@H](C)C1OC1C[C@@](C)(O)/C=C/C=C(\C)[C@H]1OC(=O)C[C@H](O)CC[C@@](C)(OC(C)=O)[C@@H](OC(=O)N2CCNCC2)/C=C/[C@@H]1C (stereo in doubt) [D4, (2S,3S,6S,7R,10R,E)-7-acetoxy-10-hydroxy-2-((R,2E,4E)-6-hydroxy-7-((2S,3S)-3-((2R,3S)-3-hydroxypentan-2-yl)oxiran-2-yl)-6-methylhepta-2,4-dien-2-yl)-3,7-dimethyl-12-oxooxacyclododec-4-en-6-yl piperazine-1-carboxylate] | 11.1 | −55.97 | 1 | 1 | 17.9 | 106 | 4.5 | 1.7 | −99.957 | – | 11.4 | 3.24 | −81.775 | CTGlo-ATS GMean LD50 (nM) 72 h NCIH1650.1 (NCIH1650.1): 1960.398 nM; GI50 (NCIH1650.1): 11.9 nM; Perm. Mean Caco 2 A-B Perm (10e−6 cm/s) (Caco-2 cells): 0.1 10e−6 cm/s; Perm. Mean Caco 2 B-A Perm (10e−6 cm/s) (Caco-2 cells): 1.79 10e−6 cm/s; GI50 (MOLP8 cells): 1.15 nM; CTGlo-ATS GMean LD50 (nM) 72 h NCIH1568.1 (NCIH1568.1): 45.485 nM; GI50 (NCIH1568.1): 6.37 nM; GI50 (THP1.1): 10.9 nM |
